Measured values taken from patent US8273762B2, “Hexahydro-pyrrolo-isoquinoline compounds” (Janssen Pharmaceutica NV, priority 2005, dated 2012).

Columns and labels:
[1] = target: T1, human SERT (HEK293 membranes) (Homo sapiens, UniProt P31645); experiment: Human SERT binding (3H-citalopram displacement)
T1 construct: purchased Perkin-Elmer; host or cells: HEK293 membranes
Method: Nonspecific binding was determined in the presence of 10 μM fluoxetine for the SERT. The membranes were washed and the radioactivity was counted as above.

[2] = target: T2, human H3 receptor (SK-N-MC cells) (Homo sapiens, UniProt Q9Y5N1); experiment: Cyclic AMP accumulation (β-galactosidase reporter, Schild analysis vs histamine); type: cell-based; details: read-out: H3 pA2 (converted)
T2 construct: expressed in transfected cells; host or cells: SK-N-MC sublines with CRE-beta-galactosidase reporter
Method: The reporter gene (β-galactosidase) is under the control of multiple cyclic AMP responsive elements. In 96-well plates, histamine was added directly to the cell media followed 5 min later by an addition of forskolin (5 μM final concentration). When appropriate, antagonists were added 10 min prior to agonist addition. After a 6-h incubation at 37° C., the media was aspirated and the cells washed with 200 μL of phosphate-buffered saline followed by a second aspiration. Cells were lysed with 25 μL 0.1× assay buffer (10 mM Na-phosphate, pH 8, 0.2 mM MgSO4, 0.01 mM MnCl2) and incubated at rt for 10 min. Cells were then incubated for 10 min with 100 μL of 1× assay buffer containing 0.5% Triton and 40 mM β-mercaptoethanol. Color was developed using 25 μL of 1 mg/mL substrate solution (chlorophenolred β-D galactopyranoside; Roche Molecular Biochemicals, Indianapolis, Ind.).

[3] = target: T3, cloned human H3 receptor, stably expressed in SK-N-MC cells (Homo sapiens, UniProt Q9Y5N1); experiment: H3 receptor binding (N-[3H]-α-methylhistamine displacement); details: SK-N-MC membranes, 0.8 nM N-[3H]-α-methylhistamine
T3 construct: expressed in transfected cells
T3 sequence (Q9Y5N1 whole entry): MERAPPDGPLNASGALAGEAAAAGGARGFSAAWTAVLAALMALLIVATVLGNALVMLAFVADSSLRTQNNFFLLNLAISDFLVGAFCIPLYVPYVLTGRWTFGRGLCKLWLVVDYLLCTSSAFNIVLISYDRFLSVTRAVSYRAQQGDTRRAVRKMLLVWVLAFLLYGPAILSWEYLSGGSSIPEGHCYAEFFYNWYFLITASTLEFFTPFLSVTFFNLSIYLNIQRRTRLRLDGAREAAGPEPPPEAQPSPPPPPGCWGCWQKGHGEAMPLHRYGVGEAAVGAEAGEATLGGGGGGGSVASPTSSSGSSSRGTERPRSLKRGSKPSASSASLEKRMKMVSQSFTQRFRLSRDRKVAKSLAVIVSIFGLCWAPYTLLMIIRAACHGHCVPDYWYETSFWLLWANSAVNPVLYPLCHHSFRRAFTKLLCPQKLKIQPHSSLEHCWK

T1 sequence (P31645 whole entry): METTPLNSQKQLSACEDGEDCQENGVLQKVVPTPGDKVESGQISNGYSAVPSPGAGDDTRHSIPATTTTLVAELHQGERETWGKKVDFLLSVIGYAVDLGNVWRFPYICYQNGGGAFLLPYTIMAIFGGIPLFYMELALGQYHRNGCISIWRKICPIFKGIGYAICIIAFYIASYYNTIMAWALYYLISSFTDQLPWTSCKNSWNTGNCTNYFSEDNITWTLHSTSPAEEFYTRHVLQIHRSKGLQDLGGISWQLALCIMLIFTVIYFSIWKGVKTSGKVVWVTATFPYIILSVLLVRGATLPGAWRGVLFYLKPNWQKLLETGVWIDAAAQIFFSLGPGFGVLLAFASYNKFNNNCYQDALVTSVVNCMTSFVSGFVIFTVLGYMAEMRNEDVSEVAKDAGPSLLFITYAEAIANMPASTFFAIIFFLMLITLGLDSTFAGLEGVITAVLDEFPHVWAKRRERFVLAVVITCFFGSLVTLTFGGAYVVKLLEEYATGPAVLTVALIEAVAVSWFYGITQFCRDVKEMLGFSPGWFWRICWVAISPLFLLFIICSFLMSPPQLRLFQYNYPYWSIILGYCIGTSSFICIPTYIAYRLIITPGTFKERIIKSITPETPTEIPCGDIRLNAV
T2 sequence (Q9Y5N1 whole entry): as the sequence (Q9Y5N1 whole entry) above

Q: With `COc1ccc([C@@H]2CN3CCC[C@H]3c3cc(C#CCCN4CCCCC4)ccc32)cc1` (relative stereo) [Example 96A, Cis-6-(4-methoxy-phenyl)-9-(4-piperidin-1-yl-but-1-ynyl)-1,2,3,5,6,10b-hexahydro-pyrrolo[2,1-a]isoquinoline] as the compound, how does the Ki [1] read?
A: The Ki was 9 nM.

Q: What about the Kb [2] of the same compound?
A: The Kb was 6.31 nM.

Q: And the Ki [3]?
A: Its Ki is 1 nM.

Q: What does the source list for `Brc1ccc([C@H]2CN3CCC[C@H]3c3cc(OCCCN4CCCCC4)ccc32)cc1` (relative stereo) [Example 40]?
A: Ki [1]: 18 nM; Ki [3]: 3 nM

Q: With `O=[N+]([O-])c1cccc([C@H]2CN3CCC[C@H]3c3cc(OCCCN4CCCCC4)ccc32)c1` (relative stereo) [Example 4A, Cis-6-(3-Nitro-phenyl)-9-(3-piperidin-1-yl-propoxy)-1,2,3,5,6,10b-hexahydro-pyrrolo[2,1-a]isoquinoline] as the compound, how does the Ki [1] read?
A: Its Ki is 4 nM.

Q: And the Kb [2]?
A: Its Kb is 0.126 nM.

Q: What about the Ki [3] of the same compound?
A: The Ki was 1 nM.

Q: Which results are given for `FC(F)(F)c1ccc([C@H]2CN3CCC[C@H]3c3cc(OCCCN4CCCCC4)ccc32)cc1` (relative stereo) [Example 7A, Cis-9-(3-Piperidin-1-yl-propoxy)-6-(4-trifluoromethyl-phenyl)-1,2,3,5,6,10b-hexahydro-pyrrolo[2,1-a]isoquinoline]?
A: Ki [1]: 12 nM; Kb [2]: 6.31 nM; Ki [3]: 5 nM

Q: How did the Ki [1] turn out when `Oc1ccccc1[C@H]1CN2CCC[C@H]2c2cc(OCCCN3CCCCC3)ccc21` (relative stereo) [Example 16] was run?
A: Its Ki is 112 nM.

Q: And the Kb [2]?
A: Its Kb is 1.26 nM.

Q: What about the Ki [3] of the same compound?
A: The Ki was 4 nM.

Q: For `COc1ccc([C@H]2CN3CCC[C@H]3c3cc(OCCCN4CCOCC4)ccc32)cc1` (relative stereo) [Example 38], which Ki [1] is on record?
A: The Ki was 7 nM.

Q: With `C#Cc1ccc([C@H]2CN3CCC[C@H]3c3cc(OCCCN4CCCCC4)ccc32)cc1` (relative stereo) [Example 37] as the compound, how does the Ki [1] read?
A: Its Ki is 0.8 nM.

Q: What about the Kb [2] of the same compound?
A: The Kb was 1.58 nM.

Q: And the Ki [3]?
A: Its Ki is 4 nM.

Q: What does the source list for `Fc1ccc([C@@H]2CN3CCC[C@H]3c3cc(OCCCN4CCCCC4)ccc32)cc1` (relative stereo) [Example 14A, Cis-6-(4-Fluoro-phenyl)-9-(3-piperidin-1-yl-propoxy)-1,2,3,5,6,10b-hexahydro-pyrrolo[2,1-a]isoquinoline]?
A: Ki [1]: 3 nM; Kb [2]: 1 nM; Ki [3]: 2 nM

Q: `Clc1ccc([C@@H]2CN3CCC[C@H]3c3cc(OCCCN4CCCCC4)ccc32)cc1Cl` (relative stereo) [Example 6A, Cis-6-(3,4-Dichloro-phenyl)-9-(3-piperidin-1-yl-propoxy)-1,2,3,5,6,10b-hexahydro-pyrrolo[2,1-a]isoquinoline] was tested. Which Ki [1] did it give?
A: Its Ki is 4 nM.

Q: What about the Kb [2] of the same compound?
A: The Kb was 6.31 nM.

Q: And the Ki [3]?
A: The Ki was 3 nM.

Q: `CSc1ccc([C@H]2CN3CCC[C@H]3c3cc(OCCCN4CCCCC4)ccc32)cc1` (relative stereo) [Example 39A, Cis-6-(4-Methylsulfanyl-phenyl)-9-(3-piperidin-1-yl-propoxy)-1,2,3,5,6,10b-hexahydro-pyrrolo[2,1-a]isoquinoline] was tested. Which Ki [1] did it give?
A: Its Ki is 4 nM.

Q: And the Ki [3]?
A: Its Ki is 2 nM.

Q: `COc1ccc([C@H]2CN3CCC[C@H]3c3cc(OCCCN4CCC(F)CC4)ccc32)cc1` (relative stereo) [Example 47] was tested. Which Ki [1] did it give?
A: The Ki was 5 nM.

Q: And the Ki [3]?
A: The Ki was 3 nM.

Q: `Cc1ccc([C@H]2CN3CCC[C@H]3c3cc(OCCCN4CCCCC4)ccc32)cc1` (relative stereo) [Example 5A, Cis-9-(3-Piperidine-1-yl-propoxy)-6-p-tolyl-1,2,3,5,6,10b-hexahydro-pyrrolo[2,1-a]isoquinoline] was tested. Which Ki [1] did it give?
A: Its Ki is 4 nM.

Q: What about the Kb [2] of the same compound?
A: Its Kb is 2.51 nM.

Q: What about the Ki [3] of the same compound?
A: Its Ki is 2 nM.

Q: What does the source list for `COc1ccc([C@H]2CN3CCC[C@H]3c3cc(OCCCN4CCCCC4)ccc32)c(OC)c1` (relative stereo) [Example 19]?
A: Ki [1]: 5 nM; Kb [2]: 0.398 nM; Ki [3]: 1 nM

Q: `COc1ccccc1[C@H]1CN2CCC[C@H]2c2cc(OCCCN3CCCCC3)ccc21` (relative stereo) [Example 13A] was tested. Which Ki [1] did it give?
A: The Ki was 21 nM.

Q: Which results are given for `Ic1ccc([C@@H]2CN3CCC[C@H]3c3cc(OCCCN4CCCCC4)ccc32)cc1` (relative stereo) [Example 35A, Cis-6-(4-Iodo-phenyl)-9-(3-piperidin-1-yl-propoxy)-1,2,3,5,6,10b-hexahydro-pyrrolo[2,1-a]isoquinoline]?
A: Ki [1]: 7 nM; Kb [2]: 3.98 nM; Ki [3]: 4 nM

Q: For `O=[N+]([O-])c1cccc([C@@H]2CN3CCC[C@H]3c3cc(OCCCN4CCCCC4)ccc32)c1` (relative stereo) [Example 4B, Trans-6-(3-Nitro-phenyl)-9-(3-piperidin-1-yl-propoxy)-1,2,3,5,6,10b-hexahydro-pyrrolo[2,1-a]isoquinoline], which Kb [2] is on record?
A: The Kb was 0.158 nM.

Q: And the Ki [3]?
A: Its Ki is 1 nM.

Q: With `C#Cc1cccc([C@H]2CN3CCC[C@H]3c3cc(OCCCN4CCCCC4)ccc32)c1` (relative stereo) [Example 34] as the compound, how does the Ki [1] read?
A: Its Ki is 3 nM.

Q: And the Kb [2]?
A: The Kb was 1 nM.

Q: And the Ki [3]?
A: The Ki was 2 nM.

Q: `COc1ccc(OC)c([C@H]2CN3CCC[C@H]3c3cc(OCCCN4CCCCC4)ccc32)c1` (relative stereo) [Example 20] was tested. Which Ki [1] did it give?
A: Its Ki is 43 nM.

Q: And the Kb [2]?
A: Its Kb is 1 nM.

Q: What about the Ki [3] of the same compound?
A: The Ki was 1 nM.

Q: How did the Ki [1] turn out when `COc1cc(OC)cc([C@H]2CN3CCC[C@H]3c3cc(OCCCN4CCCCC4)ccc32)c1` (relative stereo) [Example 21] was run?
A: The Ki was 5 nM.

Q: And the Kb [2]?
A: The Kb was 0.794 nM.

Q: What about the Ki [3] of the same compound?
A: The Ki was 1 nM.

Q: What does the source list for `c1cncc([C@H]2CN3CCC[C@H]3c3cc(OCCCN4CCCCC4)ccc32)c1` (relative stereo) [Example 26]?
A: Kb [2]: 0.0794 nM; Ki [3]: 0.8 nM

Q: `Oc1cccc([C@H]2CN3CCC[C@H]3c3cc(OCCCN4CCCCC4)ccc32)c1` (relative stereo) [Example 15] was tested. Which Ki [1] did it give?
A: The Ki was 3 nM.

Q: And the Kb [2]?
A: Its Kb is 0.126 nM.

Q: What about the Ki [3] of the same compound?
A: The Ki was 0.7 nM.

Q: What does the source list for `Nc1ccc([C@H]2CN3CCC[C@H]3c3cc(OCCCN4CCCCC4)ccc32)cc1` (relative stereo) [Example 3]?
A: Ki [1]: 8 nM; Kb [2]: 0.0794 nM; Ki [3]: 0.5 nM

Q: How did the Ki [1] turn out when `COc1cc([C@H]2CN3CCC[C@H]3c3cc(OCCCN4CCCCC4)ccc32)cc(OC)c1OC` (relative stereo) [Example 22] was run?
A: The Ki was 220 nM.

Q: What about the Kb [2] of the same compound?
A: The Kb was 0.631 nM.

Q: What about the Ki [3] of the same compound?
A: The Ki was 0.8 nM.

Q: `COc1ccc([C@H]2CN3CCC[C@H]3c3cc(OCCCN4CCCCC4)ccc32)cc1OC` (relative stereo) [Example 18] was tested. Which Ki [1] did it give?
A: Its Ki is 13 nM.

Q: And the Kb [2]?
A: Its Kb is 0.501 nM.

Q: And the Ki [3]?
A: Its Ki is 0.9 nM.

Q: With `FC(F)(F)c1ccc([C@@H]2CN3CCC[C@H]3c3cc(OCCCN4CCCCC4)ccc32)cc1` (relative stereo) [Example 7B, Trans-9-(3-Piperidin-1-yl-propoxy)-6-(4-trifluoromethyl-phenyl)-1,2,3,5,6,10b-hexahydro-pyrrolo[2,1-a]isoquinoline] as the compound, how does the Kb [2] read?
A: Its Kb is 6.31 nM.

Q: And the Ki [3]?
A: The Ki was 2 nM.

Q: For `CSc1ccc([C@@H]2CN3CCC[C@H]3c3ccc(C#CCCN4CCCCC4)cc32)cc1` (relative stereo) [Example 97A, Cis-6-(4-methylsulfanyl-phenyl)-8-(4-piperidin-1-yl-but-1-ynyl)-1,2,3,5,6,10b-hexahydro-pyrrolo[2,1-a]isoquinoline], which Ki [1] is on record?
A: Its Ki is 2000 nM.

Q: What about the Kb [2] of the same compound?
A: The Kb was 1.58 nM.

Q: And the Ki [3]?
A: Its Ki is 3 nM.

Q: With `CSc1ccc([C@@H]2CN3CCC[C@H]3c3cc(C#CCCN4CCCCC4)ccc32)cc1` (relative stereo) [Example 98A, Cis-6-(4-methylsulfanyl-phenyl)-9-(4-piperidin-1-yl-but-1-ynyl)-1,2,3,5,6,10b-hexahydro-pyrrolo[2,1-a]isoquinoline] as the compound, how does the Ki [1] read?
A: The Ki was 2 nM.

Q: And the Kb [2]?
A: The Kb was 10 nM.

Q: And the Ki [3]?
A: Its Ki is 4 nM.

Q: `CSc1ccc([C@H]2CN3CCC[C@H]3c3cc(C#CCCN4CCCCC4)ccc32)cc1` (relative stereo) [Example 98B, Trans-6-(4-methylsulfanyl-phenyl)-9-(4-piperidin-1-yl-but-1-ynyl)-1,2,3,5,6,10b-hexahydro-pyrrolo[2,1-a]isoquinoline] was tested. Which Kb [2] did it give?
A: Its Kb is 2.51 nM.

Q: What about the Ki [3] of the same compound?
A: The Ki was 3 nM.

Q: How did the Ki [1] turn out when `O=[N+]([O-])c1ccc([C@H]2CN3CCC[C@H]3c3cc(OCCCN4CCCCC4)ccc32)cc1` (relative stereo) [Example 2A, Cis-6-(4-Nitro-phenyl)-9-(3-piperidin-1-yl-propoxy)-1,2,3,5,6,10b-hexahydro-pyrrolo[2,1-a]isoquinoline] was run?
A: Its Ki is 6 nM.

Q: What about the Kb [2] of the same compound?
A: The Kb was 0.398 nM.

Q: What about the Ki [3] of the same compound?
A: The Ki was 1 nM.

Q: With `Cc1cccc([C@H]2CN3CCC[C@H]3c3cc(OCCCN4CCCCC4)ccc32)c1` (relative stereo) [Example 31] as the compound, how does the Ki [1] read?
A: The Ki was 28 nM.

Q: And the Ki [3]?
A: The Ki was 12 nM.

Q: `Ic1cccc([C@H]2CN3CCC[C@H]3c3cc(OCCCN4CCCCC4)ccc32)c1` (relative stereo) [Example 32] was tested. Which Ki [1] did it give?
A: The Ki was 11 nM.

Q: And the Kb [2]?
A: Its Kb is 0.316 nM.

Q: What about the Ki [3] of the same compound?
A: Its Ki is 1 nM.

Q: With `Ic1ccc([C@H]2CN3CCC[C@H]3c3cc(OCCCN4CCCCC4)ccc32)cc1` (relative stereo) [Example 35B, Trans-6-(4-Iodo-phenyl)-9-(3-piperidin-1-yl-propoxy)-1,2,3,5,6,10b-hexahydro-pyrrolo[2,1-a]isoquinoline] as the compound, how does the Kb [2] read?
A: The Kb was 3.16 nM.

Q: And the Ki [3]?
A: The Ki was 2 nM.

Q: Which Ki [1] does the source give for `Clc1ccc([C@@H]2CN3CCC[C@H]3c3cc(OCCCN4CCCCC4)ccc32)cc1` (relative stereo) [Example 66A, Cis-6-(4-Chloro-phenyl)-9-(3-piperidin-1-yl-propoxy)-1,2,3,5,6,10b-hexahydro-pyrrolo[2,1-a]isoquinoline] here?
A: Its Ki is 6 nM.

Q: What about the Ki [3] of the same compound?
A: Its Ki is 2 nM.

Q: How did the Ki [1] turn out when `Clc1ccccc1[C@@H]1CN2CCC[C@H]2c2cc(OCCCN3CCCCC3)ccc21` (relative stereo) [Example 12A, Cis-6-(2-Chloro-phenyl)-9-(3-piperidin-1-yl-propoxy)-1,2,3,5,6,10b-hexahydro-pyrrolo[2,1-a]isoquinoline] was run?
A: The Ki was 8 nM.

Q: And the Kb [2]?
A: Its Kb is 1.26 nM.

Q: And the Ki [3]?
A: The Ki was 2 nM.

Q: `COc1ccc([C@H]2CN3CCC[C@H]3c3cc(OCC4CCN(C(C)C)CC4)ccc32)cc1` (relative stereo) [Example 29] was tested. Which Ki [1] did it give?
A: Its Ki is 2 nM.

Q: What about the Ki [3] of the same compound?
A: Its Ki is 0.9 nM.
